Results as given in publication PMC11477289, “Low-Basicity 5-HT6 Receptor Ligands from the Group of Cyclic Arylguanidine Derivatives and Their Antiproliferative Activity Evaluation” (International Journal of Molecular Sciences, 2024).
Several values for one entry are separate records, joined by “and”; a condition that tells them apart may be missing. Equal values may be shown once.

Assays:
[1] = tested on: U87MG glioblastoma cells; assay: Antiproliferative activity (MTS), U87MG; settings: Homo sapiens, U-87 MG, 72 h, read-out: IC50 Values U87MG
[2] = target: T1, human 5-HT6 (Homo sapiens, UniProt P50406); assay: [3H]-LSD radioligand binding assay, 5-HT6R; settings: HEK293 expressing human 5-HT6R, read-out: 5-HT6 Ki
T1 construct: expressed in transfected cells
Experimental: Next, the ligands’ affinity for the 5-HT6 receptors was evaluated in the [^3H]-LSD radioligand binding assay. Experiments were performed in a stable HEK293 cell line expressing the human 5-HT6R.
The pellets were stored at −80 °C.

[3] = tested on: 1321N1 astrocytoma cell line; assay: Antiproliferative activity (MTS), 1321N1; settings: Homo sapiens, 1321-N1, 72 h, read-out: IC50 Values 1321N1
[4] = Affinity to phospholipids, IAM column (CHI IAM); assay type: physicochemical; settings: IAM.PC.DD2 column, pH 7.4
[5] = Chromatographic hydrophobicity index on C18 column (lipophilicity); assay type: physicochemical
[6] = target: human serum albumin (HSA) (Homo sapiens, UniProt P02768); assay: Binding to HSA, Chiralpak HSA column; settings: Chiralpak HSA column
From the text: We began with an assay for lipophilicity, affinity for phospholipids (for 40 compounds), and drug binding to human serum albumin (HSA) (for 20 compounds), using chromatographic protocols developed by Valko [46] and implemented in our laboratory. Compounds with the highest affinity for 5-HT6R and those showing the most promising ADMET parameters, including the possibility of BBB penetration, DDI, and lipophilicity, determined in silico in SwissADME [45], were selected for testing. These methods allowed the determination of chromatographic hydrophobicity indices (CHIs), binding to HSA (%HSA), and phospholipids (CHIIAM) using a single-gradient elution experiment and comparison to reference substances.
The use of columns modified with plasma proteins, such as HSA, also allows for the estimation of binding to HSA, which is the most dominant plasma protein (PP). Binding to PP affects drug pharmacokinetics, such as distribution, half-life, and clearance.
The mobile phase flow rate was 1.5 mL/min, and the column was maintained at 30 °C. • Chiralpak® HSA (50 mm × 4 mm; 5 µm with safety guard column; Daicel Chiral Technologies, West Chester, PA, USA), mobile phase A: 50 mM ammonium acetate, mobile phase B: HPLC-grade isopropanol (VWR International, Leuven, Belgium). For the first 15 min, the linear gradient from 0 to 20% isopropanol was applied and then held at 20% isopropanol for 12 min. In the last 5 min of the sequence, the mobile phase mixture received a pure ammonium acetate solution. The column temperature was held at 30 °C, whereas the flow rate was 0.9 mL/min.
The reference substances for the calibration of HSA, C18, and IAM columns were purchased, respectively: acetanilide, butyrophenone, diclofenac, and octanonophenone (Alfa Aesar, Haverhill, MA, USA); acetophenone, benzimidazole, colchicine, indole, indometacin, paracetamol, and theophylline (Sigma-Aldrich, Steinheim, Germany); nicardipine and nizatidine (Cayman Chemical, Ann Arbor, MI, USA); carbamazepine, heptanophenone, hexanophenone, propiophenone, and valerophenone (Acros Organic, Pittsburg, PA, USA). Before chromatographic experiments, solutes were dissolved in dimethyl sulfoxide (Avantor Performance Materials Poland S.A., Gliwice, Poland) to obtain a 200 µg/mL concentration. The detection was performed in the UV region at the wavelength from 190 nm to 300 nm. The injected volume was 5 μL, and each compound was analyzed in triplicate.

T1 sequence (P50406 whole entry): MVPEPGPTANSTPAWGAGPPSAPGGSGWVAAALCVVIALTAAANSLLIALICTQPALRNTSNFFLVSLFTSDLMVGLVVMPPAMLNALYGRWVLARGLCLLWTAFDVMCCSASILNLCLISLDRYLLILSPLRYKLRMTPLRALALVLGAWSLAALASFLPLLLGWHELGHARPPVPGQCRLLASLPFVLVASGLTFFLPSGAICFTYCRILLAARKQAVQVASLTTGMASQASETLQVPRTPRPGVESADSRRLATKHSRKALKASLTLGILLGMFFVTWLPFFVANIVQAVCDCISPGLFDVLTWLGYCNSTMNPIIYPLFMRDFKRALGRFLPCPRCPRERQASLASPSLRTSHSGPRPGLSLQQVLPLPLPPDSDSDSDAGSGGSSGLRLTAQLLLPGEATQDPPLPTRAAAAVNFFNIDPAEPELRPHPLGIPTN
human serum albumin (HSA), sequence (P02768 25-609): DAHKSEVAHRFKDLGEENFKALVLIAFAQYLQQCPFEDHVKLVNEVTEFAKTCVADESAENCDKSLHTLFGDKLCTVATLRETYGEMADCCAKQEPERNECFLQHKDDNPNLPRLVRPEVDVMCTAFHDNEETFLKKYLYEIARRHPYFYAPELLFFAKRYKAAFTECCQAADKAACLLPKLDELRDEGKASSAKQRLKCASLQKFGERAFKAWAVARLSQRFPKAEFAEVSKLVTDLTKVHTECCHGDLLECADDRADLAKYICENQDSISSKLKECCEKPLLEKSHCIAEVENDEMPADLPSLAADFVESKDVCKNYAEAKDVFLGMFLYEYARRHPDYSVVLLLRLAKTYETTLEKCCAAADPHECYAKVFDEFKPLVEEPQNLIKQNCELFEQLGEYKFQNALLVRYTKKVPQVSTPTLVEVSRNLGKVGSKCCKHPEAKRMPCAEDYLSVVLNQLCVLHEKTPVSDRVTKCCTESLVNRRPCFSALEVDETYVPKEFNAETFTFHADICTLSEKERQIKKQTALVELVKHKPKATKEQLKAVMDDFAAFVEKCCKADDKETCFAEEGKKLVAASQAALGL

| SMILES | IC50 [1] | Ki [2] | melting point | IC50 [3] | CHI IAM [4] | CHI C18 pH 2.6 [5] | CHI C18 pH 7.4 [5] | CHI C18 pH 10.5 [5] | %HSA [6] | logKHSA [6] |
| --- | --- | --- | --- | --- | --- | --- | --- | --- | --- | --- |
| O=S(=O)(NC1=Nc2ccccc2CN1)c1cccc2c(Cl)cccc12 [PR 43, 5-chloro-N-(3,4-dihydroquinazolin-2-yl)naphthalene-1-sulfonamide] | > 25 µM | 0.258 ± 0.046 µM | 185 to 191 °C | > 25 µM |  |  |  |  |  |  |
| Cc1cccc2c1CNC(NS(=O)(=O)c1cccc3ccccc13)=N2 [PR 61, N -(5-methyl-3,4-dihydroquinazolin-2-yl)naphthalene-1-sulfonamide] | > 25 µM | 0.412 ± 0.095 µM | 233 to 237 °C | > 25 µM | 41.4 | 93.1 | 91.8 | 94.2 | 97.3% | 1.4 |
| O=S(=O)(NC1=Nc2cccc(F)c2CN1)c1cccc2ccccc12 [PR 54, N -(5-fluoro-3,4-dihydroquinazolin-2-yl)naphthalene-1-sulfonamide] | > 25 µM | 0.381 ± 0.088 µM | 191 to 193 °C | > 25 µM | 40.8 | 90.8 | 89.4 | 92.4 | 96.4% | 1.3 |
| O=S(=O)(NC1=Nc2ccccc2CN1)c1ccc(OC(F)(F)F)cc1 [PR 17, N -(3,4-dihydroquinazolin-2-yl)-4-(trifluoromethoxy)benzene-1-sulfonamide] | > 25 µM | 9.85 ± 2.46 µM | 161 to 163 °C | > 25 µM | 38.7 | 94.2 | 93.2 | 95.0 | 93.7% | 1.1 |
| O=S(=O)(NC1=Nc2ccccc2CN1)c1cccc2cc(Cl)ccc12 [PR 44, 6-chloro-N-(3,4-dihydroquinazolin-2-yl)naphthalene-1-sulfonamide] | > 25 µM | 0.282 ± 0.065 µM | 210 to 212 °C | > 25 µM | 44.3 | 98.2 | 96.5 | 99.5 | 98.3% | 1.6 |
| O=S(=O)(NC1=Nc2c(Cl)cc(Cl)cc2CN1)c1cccc2ccccc12 [PR 51, N -(6,8-dichloro-3,4-dihydroquinazolin-2-yl)naphthalene-1-sulfonamide] | > 25 µM | 0.866 ± 0.199 µM | 214 to 219 °C | > 25 µM | 48.4 | 108.2 | 106.2 | 110.1 | 99.0% | 1.7 |
| O=S(=O)(NC1=Nc2ccccc2CN1)c1ccc(Cl)c2ccccc12 [PR 42, 4-chloro-N-(3,4-dihydroquinazolin-2-yl)naphthalene-1-sulfonamide] | > 25 µM | 0.268 ± 0.063 µM | 188 to 191 °C | > 25 µM | 45.5 | 100.1 | 99.2 | 101.6 | 97.9% | 1.5 |
| CC1NC(NS(=O)(=O)c2ccc(Cl)c3ccccc23)=Nc2c(Cl)cc(Cl)cc21 (stereo not drawn) [PR 74, 4-chloro-N-(6,8-dichloro-4-methyl-3,4-dihydroquinazolin-2-yl)naphthalene-1-sulfonamide] | 17 ± 0.4 µM | 1.04 ± 0.26 µM | 215 to 219 °C | 13.4 ± 0.8 µM | 55.5 | 125.7 | 123 and 123.9 | 128.1 | 99.9% | 2.0 |
| Nc1nc2ccccc2n1S(=O)(=O)c1cccc2cccnc12 [PR 9, 1-(quinoline-8-sulfonyl)-1H-1,3-benzodiazol-2-amine] | > 25 µM | 0.318 ± 0.018 µM | 254 to 256 °C | > 25 µM | 35.7 | 75.1 | 79.2 | 79.6 | 94.3% | 1.1 |
